Laboratory results taken from ChEMBL document CHEMBL1649573, “Protein kinase G is required for intrinsic antibiotic resistance in mycobacteria” (2009).
Values after ≈ are worked out from the molar mass of the structure shown. Active and inactive are the calls of the source. The calls are words filed in the database; no cut-off is given here.

How the values were obtained:
[1] = system: Mycolicibacterium smegmatis; assay: Antimycobacterial activity against Mycobacterium smegmatis MC2 155 by Etest method; format: functional; conditions: str. MC2 155
[2] = system: Mycolicibacterium smegmatis; assay: Antimycobacterial activity against Mycobacterium smegmatis MAR4 harboring disrupted PknGMsm gene by Etest method; format: functional
[3] = system: Mycolicibacterium smegmatis; assay: Antimycobacterial activity against Mycobacterium smegmatis MC2 155 harboring PknG K181M mutant gene by Etest method; format: functional; conditions: str. MC2 155
[4] = system: Mycolicibacterium smegmatis; assay: Antimycobacterial activity against PknGMsm-deficient Mycobacterium smegmatis by Etest method; format: functional
[5] = system: Mycolicibacterium smegmatis; assay: Antimycobacterial activity against PknGMsm-deficient Mycobacterium smegmatis harboring PknG K181M mutant gene by Etest method; format: functional
[6] = system: Mycolicibacterium smegmatis; assay: Antimycobacterial activity against Mycobacterium smegmatis harboring PknG Msm gene by Etest method; format: functional
[7] = system: Mycobacterium tuberculosis; assay: Antimycobacterial activity against Mycobacterium tuberculosis H37Rv at 100 mg/l after 7 days by microscopy; format: functional, organism-based
[8] = system: Mycobacterium tuberculosis; assay: Antimycobacterial activity against PknGMtb-deficient Mycobacterium tuberculosis H37Rv at 100 mg/l after 7 days by microscopy; format: functional, organism-based

Structure (SMILES) | MIC [1] [µg/mL] | MIC [2] [µg/mL] | MIC [3] [µg/mL] | MIC [4] [µg/mL] | MIC [5] [µg/mL] | MIC [6] [µg/mL] | Activity [7] | Activity [8]
CC[C@H]1OC(=O)[C@H](C)[C@@H](O[C@H]2C[C@@](C)(OC)[C@@H](O)[C@H](C)O2)[C@H](C)[C@@H](O[C@@H]2O[C@H](C)C[C@H](N(C)C)[C@H]2O)[C@](C)(O)C[C@@H](C)C(=O)[C@H](C)[C@@H](O)[C@]1(C)O [ERYTHROMYCIN] | 32 (≈ 43.6 µM) | 4 (≈ 5.45 µM) | 12 (≈ 16.4 µM) | 3 (≈ 4.09 µM) | 3 (≈ 4.09 µM) | 32 (≈ 43.6 µM) | inactive | Active
CC[C@@H](CO)NCCN[C@@H](CC)CO [ETHAMBUTOL] | 0.25 (≈ 1.22 µM) | 0.064 (≈ 0.313 µM) | 0.064 (≈ 0.313 µM) | 0.064 (≈ 0.313 µM) | – | 0.25 (≈ 1.22 µM) | – | –
C[C@@H](O)[C@H]1C(=O)N2C(C(=O)O)=C(SCCNC=N)C[C@H]12 [IMIPENEM ANHYDROUS] | 6 (≈ 20 µM) | 0.38 (≈ 1.27 µM) | 1 (≈ 3.34 µM) | 0.38 (≈ 1.27 µM) | 0.38 (≈ 1.27 µM) | 6 (≈ 20 µM) | – | –
CO[C@H]1/C=C/O[C@@]2(C)Oc3c(C)c(O)c4c(O)c(c(/C=N/N5CCN(C)CC5)c(O)c4c3C2=O)NC(=O)/C(C)=C\C=C\[C@H](C)[C@H](O)[C@@H](C)[C@@H](O)[C@@H](C)[C@H](OC(C)=O)[C@@H]1C [RIFAMPIN] | > 32 | 4 (≈ 4.86 µM) | 4 (≈ 4.86 µM) | 4 (≈ 4.86 µM) | – | > 32 | – | –
CN[C@H](CC(C)C)C(=O)N[C@H]1C(=O)N[C@@H](CC(N)=O)C(=O)N[C@H]2C(=O)N[C@H]3C(=O)N[C@H](C(=O)N[C@H](C(=O)O)c4cc(O)cc(O)c4-c4cc3ccc4O)[C@H](O)c3ccc(c(Cl)c3)Oc3cc2cc(c3O[C@@H]2O[C@H](CO)[C@@H](O)[C@H](O)[C@H]2O[C@H]2C[C@](C)(N)[C@H](O)[C@H](C)O2)Oc2ccc(cc2Cl)[C@H]1O [VANCOMYCIN] | 48 (≈ 33.1 µM) | 4 (≈ 2.76 µM) | 16 (≈ 11 µM) | 4 (≈ 2.76 µM) | 4 (≈ 2.76 µM) | 48 (≈ 33.1 µM) | – | –
